The text below walks through data of ChEMBL document CHEMBL1137234, “Correlation between brain/plasma ratios and efficacy in neuropathic pain models of selective metabotropic glutamate receptor 1 antagonists” (Bioorg Med Chem Lett, 2006).

For orientation: IC50 means the point on the concentration scale where inhibition reaches its midpoint. Low values mean inhibition by little substance, high ones a need for much substance. The term ED50 denotes the dose at which the effect has come halfway, by size or by number of responders. Low values mean greater potency, high ones weaker potency.

The target of series [1] is Metabotropic glutamate receptor 1 (Rattus norvegicus, UniProt P23385). The series is described as follows: Antagonist activity at rat mGluR1 expressed in 1321N1 cells. The series is classed as functional, cell-based.
For series [2], the target named is Metabotropic glutamate receptor 5 (Rattus norvegicus, UniProt P31424). The series is described as follows: Antagonist activity at rat mGluR5 expressed in 1321N1 cells. Type of series: functional, cell-based.
In series [3] the test system is Rattus norvegicus. Description: Efficacy in rat Chung spinal nerve L5/L6 ligation pain model after 30 mins at 100 umol/kg, ip. Type of series: functional.
In series [4] the test system is Rattus norvegicus. The series is described as follows: Efficacy in ip dosed rat Chung spinal nerve L5/L6 ligation pain model after 30 mins. Type of series: functional. To be noted: 0.5 h.
Series [5] has as its system Rattus norvegicus. The series is described as follows: Drug level in rat brain at 30 umol/kg, ip. Type of series: ADME, organism-based. Particulars: in vivo.
Series [6] is filed under the species Rattus norvegicus. The series is described as follows: Free drug level in rat brain. Type of series: ADME, organism-based. Particulars: in vivo.
Series [7] is filed under the species Rattus norvegicus. Description: Protein binding in rat brain. Particulars: in vivo. The series is classed as ADME, organism-based.
Series [8] relates to Rattus norvegicus. Description: Efficacy in ip dosed rat osteoarthritic pain model after 30 mins. Type of series: functional. To be noted: 0.5 h.
In series [9] the test system is Rattus norvegicus. The series is described as follows: Activity in ip dosed rat locomotor model. The series is classed as functional.
The subject of series [10] is Rattus norvegicus. Description: Activity in ip dosed rat Rotarod model. The series is classed as functional. (In general: The rotarod test checks motor coordination on a turning rod.)
The target of series [11] is Metabotropic glutamate receptor 2 (Homo sapiens, UniProt Q14416). The series is described as follows: Antagonist activity at human mGluR2 expressed in 1321N1 cells. The series is classed as functional, cell-based.
The target in series [12] is Metabotropic glutamate receptor 4 (Homo sapiens, UniProt Q14833). The series is described as follows: Antagonist activity at human mGluR4 expressed in 1321N1 cells. The series is classed as functional, cell-based.
Series [13] concerns the target Metabotropic glutamate receptor 7 (Homo sapiens, UniProt Q14831). The series is described as follows: Antagonist activity at human mGluR7 expressed in 1321N1 cells. Type of series: functional, cell-based.
Series [14] has as its system Rattus norvegicus. The series is described as follows: Efficacy in ip dosed rat CFA model after 30 mins. To be noted: 0.5 h. Type of series: functional.
In series [15] the test system is Rattus norvegicus. Description: Efficacy in ip dosed rat Carrageenan model after 30 mins. Type of series: functional. Particulars: 0.5 h.
For series [16], the system named is Rattus norvegicus. The series is described as follows: Efficacy in ip dosed rat skin incision model after 30 mins. To be noted: 0.5 h. The series is classed as functional.
In series [17] the test system is Rattus norvegicus. Description: Efficacy in ip dosed rat formalin model after 30 mins. Type of series: functional. Particulars: 0.5 h.

Chain of Metabotropic glutamate receptor 1 (P23385 whole entry): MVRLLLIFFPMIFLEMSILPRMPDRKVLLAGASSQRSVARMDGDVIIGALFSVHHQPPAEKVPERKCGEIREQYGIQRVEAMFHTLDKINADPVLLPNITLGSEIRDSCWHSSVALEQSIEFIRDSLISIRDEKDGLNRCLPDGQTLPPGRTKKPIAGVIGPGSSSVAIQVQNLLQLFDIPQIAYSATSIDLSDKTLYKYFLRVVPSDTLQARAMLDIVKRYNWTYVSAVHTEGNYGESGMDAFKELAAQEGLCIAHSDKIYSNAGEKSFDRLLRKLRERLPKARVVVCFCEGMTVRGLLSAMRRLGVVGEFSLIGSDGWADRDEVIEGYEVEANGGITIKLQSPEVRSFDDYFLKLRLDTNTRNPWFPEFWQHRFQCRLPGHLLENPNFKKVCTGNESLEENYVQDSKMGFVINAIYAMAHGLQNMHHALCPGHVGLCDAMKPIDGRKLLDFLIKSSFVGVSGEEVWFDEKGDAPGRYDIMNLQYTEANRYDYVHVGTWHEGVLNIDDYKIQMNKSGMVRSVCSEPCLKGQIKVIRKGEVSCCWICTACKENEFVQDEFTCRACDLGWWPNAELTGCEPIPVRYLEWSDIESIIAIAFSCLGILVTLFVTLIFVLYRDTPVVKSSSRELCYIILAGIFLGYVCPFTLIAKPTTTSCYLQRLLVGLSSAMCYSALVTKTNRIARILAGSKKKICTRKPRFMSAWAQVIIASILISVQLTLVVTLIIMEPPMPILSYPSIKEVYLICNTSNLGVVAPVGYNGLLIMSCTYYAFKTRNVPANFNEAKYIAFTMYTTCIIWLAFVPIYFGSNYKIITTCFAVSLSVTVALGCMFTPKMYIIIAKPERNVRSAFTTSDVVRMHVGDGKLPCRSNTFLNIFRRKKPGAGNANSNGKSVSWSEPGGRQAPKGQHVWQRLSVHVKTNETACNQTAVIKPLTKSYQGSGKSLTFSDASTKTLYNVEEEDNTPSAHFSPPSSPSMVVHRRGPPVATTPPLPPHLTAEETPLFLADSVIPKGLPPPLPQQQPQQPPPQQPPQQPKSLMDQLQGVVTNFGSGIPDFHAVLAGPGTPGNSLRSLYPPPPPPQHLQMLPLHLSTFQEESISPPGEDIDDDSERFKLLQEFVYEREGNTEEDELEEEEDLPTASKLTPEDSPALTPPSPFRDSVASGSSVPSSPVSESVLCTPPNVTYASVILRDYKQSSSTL
Chain of Metabotropic glutamate receptor 5 (P31424 whole entry): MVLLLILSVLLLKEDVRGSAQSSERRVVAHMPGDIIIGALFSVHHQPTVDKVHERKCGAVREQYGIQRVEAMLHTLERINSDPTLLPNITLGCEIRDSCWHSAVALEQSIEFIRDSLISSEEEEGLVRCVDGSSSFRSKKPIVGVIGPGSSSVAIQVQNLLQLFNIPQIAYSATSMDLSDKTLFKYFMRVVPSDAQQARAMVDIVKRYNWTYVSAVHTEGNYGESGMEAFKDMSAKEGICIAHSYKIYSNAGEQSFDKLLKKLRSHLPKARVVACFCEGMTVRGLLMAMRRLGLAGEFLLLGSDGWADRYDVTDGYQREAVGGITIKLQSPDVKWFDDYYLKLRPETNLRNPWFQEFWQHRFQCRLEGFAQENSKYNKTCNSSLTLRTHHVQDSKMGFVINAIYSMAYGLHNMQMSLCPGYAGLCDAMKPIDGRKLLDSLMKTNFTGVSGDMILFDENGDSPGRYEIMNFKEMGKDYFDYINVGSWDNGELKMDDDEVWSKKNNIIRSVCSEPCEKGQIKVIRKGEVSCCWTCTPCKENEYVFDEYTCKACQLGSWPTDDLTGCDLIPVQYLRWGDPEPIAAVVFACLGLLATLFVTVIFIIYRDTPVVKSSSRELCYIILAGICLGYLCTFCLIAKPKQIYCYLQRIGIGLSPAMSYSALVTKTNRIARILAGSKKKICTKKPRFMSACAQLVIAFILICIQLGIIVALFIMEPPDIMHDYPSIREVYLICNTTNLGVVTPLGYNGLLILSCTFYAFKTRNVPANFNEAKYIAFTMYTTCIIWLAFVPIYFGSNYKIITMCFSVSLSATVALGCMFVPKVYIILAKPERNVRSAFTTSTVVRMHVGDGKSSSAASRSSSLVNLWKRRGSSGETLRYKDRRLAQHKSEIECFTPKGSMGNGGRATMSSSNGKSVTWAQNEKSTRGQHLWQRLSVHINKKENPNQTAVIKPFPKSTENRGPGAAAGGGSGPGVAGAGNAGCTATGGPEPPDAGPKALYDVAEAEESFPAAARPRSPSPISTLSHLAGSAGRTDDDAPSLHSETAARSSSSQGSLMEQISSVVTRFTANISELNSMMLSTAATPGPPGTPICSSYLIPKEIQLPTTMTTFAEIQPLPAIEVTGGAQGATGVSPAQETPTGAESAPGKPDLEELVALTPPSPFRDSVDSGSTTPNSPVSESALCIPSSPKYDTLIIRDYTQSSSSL
Chain of Metabotropic glutamate receptor 4 (Q14833 whole entry): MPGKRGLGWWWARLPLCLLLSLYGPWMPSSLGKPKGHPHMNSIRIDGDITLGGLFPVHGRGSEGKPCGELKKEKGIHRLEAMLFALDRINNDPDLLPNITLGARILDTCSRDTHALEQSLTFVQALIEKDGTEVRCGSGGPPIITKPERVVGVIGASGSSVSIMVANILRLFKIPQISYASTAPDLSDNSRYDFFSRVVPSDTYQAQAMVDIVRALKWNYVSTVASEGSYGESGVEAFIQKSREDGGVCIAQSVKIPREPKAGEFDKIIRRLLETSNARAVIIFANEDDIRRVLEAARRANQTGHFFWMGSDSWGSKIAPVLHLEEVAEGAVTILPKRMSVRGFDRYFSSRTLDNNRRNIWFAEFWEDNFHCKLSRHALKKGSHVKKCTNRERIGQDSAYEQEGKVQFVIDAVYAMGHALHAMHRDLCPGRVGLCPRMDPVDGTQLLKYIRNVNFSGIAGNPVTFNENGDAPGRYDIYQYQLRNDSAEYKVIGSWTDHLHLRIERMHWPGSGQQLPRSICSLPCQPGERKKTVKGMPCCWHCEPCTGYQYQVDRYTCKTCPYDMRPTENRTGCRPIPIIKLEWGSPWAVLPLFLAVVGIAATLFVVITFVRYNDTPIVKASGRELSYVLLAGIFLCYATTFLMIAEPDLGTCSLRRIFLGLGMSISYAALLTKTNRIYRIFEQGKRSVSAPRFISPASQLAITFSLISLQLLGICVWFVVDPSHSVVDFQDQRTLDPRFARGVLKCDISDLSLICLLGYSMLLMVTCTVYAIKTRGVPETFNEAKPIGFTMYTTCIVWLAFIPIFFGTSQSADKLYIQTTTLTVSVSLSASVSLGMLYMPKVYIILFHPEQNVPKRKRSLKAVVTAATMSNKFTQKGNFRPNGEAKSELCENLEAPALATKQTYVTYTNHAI
Chain of Metabotropic glutamate receptor 7 (Q14831 whole entry): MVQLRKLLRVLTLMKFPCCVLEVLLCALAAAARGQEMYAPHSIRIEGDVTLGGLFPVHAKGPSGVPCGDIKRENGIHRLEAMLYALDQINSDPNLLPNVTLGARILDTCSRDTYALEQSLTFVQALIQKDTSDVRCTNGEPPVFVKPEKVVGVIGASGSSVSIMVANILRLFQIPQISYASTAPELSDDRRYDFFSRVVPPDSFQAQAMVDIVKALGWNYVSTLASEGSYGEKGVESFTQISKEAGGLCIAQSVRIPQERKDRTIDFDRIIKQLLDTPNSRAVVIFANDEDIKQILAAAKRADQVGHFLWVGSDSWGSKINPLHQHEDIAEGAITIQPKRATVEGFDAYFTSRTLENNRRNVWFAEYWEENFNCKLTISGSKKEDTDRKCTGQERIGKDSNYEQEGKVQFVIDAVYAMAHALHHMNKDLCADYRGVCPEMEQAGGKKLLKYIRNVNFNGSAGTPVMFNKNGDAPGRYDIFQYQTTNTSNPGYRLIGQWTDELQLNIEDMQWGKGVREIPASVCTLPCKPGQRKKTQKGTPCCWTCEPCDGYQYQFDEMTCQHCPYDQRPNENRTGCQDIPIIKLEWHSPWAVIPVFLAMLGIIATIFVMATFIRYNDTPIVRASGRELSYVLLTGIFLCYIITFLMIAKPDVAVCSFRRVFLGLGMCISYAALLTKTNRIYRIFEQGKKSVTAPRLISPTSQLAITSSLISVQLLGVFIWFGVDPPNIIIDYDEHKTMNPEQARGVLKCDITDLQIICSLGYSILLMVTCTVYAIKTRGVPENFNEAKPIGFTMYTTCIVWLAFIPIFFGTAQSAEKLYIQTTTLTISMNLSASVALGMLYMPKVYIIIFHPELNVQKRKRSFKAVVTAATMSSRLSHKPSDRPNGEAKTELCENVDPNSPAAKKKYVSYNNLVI
Chain of Metabotropic glutamate receptor 2 (Q14416 whole entry): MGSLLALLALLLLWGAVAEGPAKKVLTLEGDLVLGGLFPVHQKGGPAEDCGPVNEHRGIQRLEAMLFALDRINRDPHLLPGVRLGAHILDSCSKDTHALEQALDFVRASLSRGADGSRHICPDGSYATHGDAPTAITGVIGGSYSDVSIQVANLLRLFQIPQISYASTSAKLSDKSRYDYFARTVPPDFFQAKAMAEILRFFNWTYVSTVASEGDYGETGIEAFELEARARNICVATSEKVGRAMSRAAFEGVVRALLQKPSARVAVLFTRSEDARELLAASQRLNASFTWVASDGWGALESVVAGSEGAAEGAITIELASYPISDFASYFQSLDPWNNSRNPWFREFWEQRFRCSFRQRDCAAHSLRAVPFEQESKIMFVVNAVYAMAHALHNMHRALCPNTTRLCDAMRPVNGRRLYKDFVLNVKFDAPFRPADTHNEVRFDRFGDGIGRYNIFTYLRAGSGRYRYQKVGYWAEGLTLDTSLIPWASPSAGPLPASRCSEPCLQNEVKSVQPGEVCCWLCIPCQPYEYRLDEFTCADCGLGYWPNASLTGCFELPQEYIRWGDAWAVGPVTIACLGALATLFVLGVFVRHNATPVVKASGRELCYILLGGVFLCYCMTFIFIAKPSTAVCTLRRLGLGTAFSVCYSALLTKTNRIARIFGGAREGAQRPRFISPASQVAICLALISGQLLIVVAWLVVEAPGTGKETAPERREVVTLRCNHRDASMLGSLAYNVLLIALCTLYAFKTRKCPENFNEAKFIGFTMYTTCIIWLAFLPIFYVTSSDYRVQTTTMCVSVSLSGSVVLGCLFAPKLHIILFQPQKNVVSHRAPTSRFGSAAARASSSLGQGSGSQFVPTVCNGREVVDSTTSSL

`CCc1ccc(-n2cnc3c(sc4nccc(N(C)CCc5ccccn5)c43)c2=O)cc1`: the IC50 in series [1] is 52 nM; in [2] it was greater than 10000 nM. In addition, the Efficacy in series [3] came to 11%.

For the molecule `Cc1ccc(-n2cnc3c(sc4cncc(N(C)C)c43)c2=O)cc1F`, the 50% effect level in [4] (ED50) was put at a dose of 55 µmol/kg. Besides, the concentration for half-maximal inhibition (IC50) in [1] is 21 nM; in series [2] it was greater than 10000 nM. Moreover, in series [3], the Efficacy was 72%. Moreover, the Activity is 125 ng/g in series [5], 0.13 ng/g in [6] and 99.9% in series [7].

For `CCc1ccc(-n2cnc3c(sc4nccc(N(C)C)c43)c2=O)cc1`, the ED50 in [8] was 29 µmol/kg; in [4] it was greater than 100 µmol/kg; in [9] it was greater than 100 µmol/kg; in [10], greater than 300 µmol/kg; in series [14], 15 µmol/kg; in series [15], 11 µmol/kg. The 50% effective dose (ED50) came to 47 µmol/kg in series [16] and 19 µmol/kg in series [17]. In addition, the half-maximal inhibitory concentration (IC50) was 5 nM in series [1]; 1330 nM in series [2]; greater than 10000 nM in [11]; greater than 10000 nM in series [12]; greater than 10000 nM in series [13]. For the same molecule, in series [3], the Efficacy is 41%. Moreover, the Activity in series [5] was 1180 ng/g; in [6] it was 25.5 ng/g; in series [7] it was 97.8%.

For the molecule `C[N+](C)([O-])c1ccnc2sc3c(=O)n(N4CCCCCC4)cnc3c12`, the 50% inhibitory concentration (IC50) is 33 nM in [1] and greater than 10000 nM in series [2]. This molecule also registered an Efficacy in series [3] of 12%.

In series [4], `CN(C)c1ccnc2sc3c(=O)n(N4CCCCCC4)cnc3c12` had a median effective dose (ED50) of 22 µmol/kg. In addition, the IC50 in [1] is 1 nM; in series [2] it was greater than 10000 nM. The molecule also gave an Efficacy in [3] of 100%. Moreover, in series [5], the Activity was determined as 851 ng/g.
